According to patent publication US20240092784A1, “CONDENSED HETEROCYCLIC COMPOUND” (NISSAN CHEMICAL CORPORATION, priority 2020, published 2024):

Columns and labels:
human SPR [1] = target: T1, human SPR (Homo sapiens (Human), UniProt P35270); assay: Evaluation Example 1: Measurement of human SPR inhibitory activity (sepiapterin absorbance at 420 nm); assay type: biochemical; conditions: 240 minutes at room temperature
Description: Human SPR was prepared as described below. The full-length human SPR (1-261) cDNA was purchased from Eurofins Genomics as an artificially synthesized plasmid containing a DNA sequence optimized for the E. coli expression system so that the sequence of the expressed protein after transcription and translation matches the sequence described in UniprotKB (P35270).
Linearized insert and vector were prepared by PCR using primers designed for amplification of human SPR cDNA and primers designed to contain the thrombin recognition sequence of pET28a (Novagen) and a polyhistidine tag. Cloning was performed using In-Fusion (registered trademark) HD Cloning Kit (TaKaRa) to thereby construct a human SPR expression plasmid. The resultant human SPR expression plasmid was transformed into BL21 (DE3) competent cells (INVITROGEN).
The cells were inoculated into LB medium (1% triptone, 0.5% yeast extract, 1% sodium chloride) containing […] of kanamycin, and then precultured at 37° C. overnight. The precultured cells were inoculated into TB medium (1.2% triptone, 2.4% yeast extract, 9.4% dipotassium hydrogen phosphate, 2.2% potassium dihydrogen phosphate, 0.8% glycerin) containing […] of kanamycin, and the cultured at 37° C., to thereby induce SPR expression with 0.5 mM IPTG for four hours. After the induction, the cells were collected by centrifugation at 6,000 G for 30 minutes and washed with PBS, and the washing was discarded. The washed cells were suspended in buffer solution A (20 mM MES, pH 6.5, 100 mM sodium chloride, 1 mM DTT, 5 mM imidazole). Subsequently, the cell suspension was subjected to ultrasonic treatment to thereby homogenize the cells. The cell homogenate was clarified by centrifugation at 30,000 G for 60 minutes and then filtered with a […]. The filtrate was allowed to pass through HisTrapFF 5 mL column (GE Healthcare). The resin was washed with buffer A, and then gradient elution was performed with buffer B (20 mM MES, pH 6.5, 100 mM sodium chloride, 1 mM DTT, 500 mM imidazole). Thrombin was added to a fraction containing the SPR protein, and the mixture was dialyzed in buffer A overnight, to thereby cleave the tag. After removal of the thrombin by with Benzamidine Sepharose 4 FF (GE Healthcare), the resultant product was allowed to pass through the HisTrapFF 5 mL column, to thereby remove the tag, followed by concentration with Amicon Ultra 10,000 NMWL (Merck Millipore). The concentrate was purified by gel filtration using HiLoad 16/60 Superdex 75 pg (GE Healthcare) equilibrated with buffer C (20 mM MES, pH 6.5, 100 mM sodium chloride, 1 mM DTT). The fraction containing SPR protein was concentrated and then cryopreserved at −80° C.
Human SPR inhibitory activity was measured by using a 384-well low adsorption clear plate (Greiner) with buffer D containing 100 mM Tris-HCl (pH 7.5) (Thermo Fisher Scientific) and 0.01% bovine serum albumin (Sigma). A compound was diluted with DMSO to a concentration of 1 mM, and a 1 μL aliquot of the preparation was diluted with 250 μL of buffer D. The thus-diluted compound was dispensed into the 384-well plate at […]. Thereafter, human SPR was diluted with buffer D to 200 ng/mL and then dispensed into the 384-well plate at 20 μL/well. Subsequently, 40 μL of ultrapure water containing 120 μM Sepiapterin (WuXi AppTec) and 120 μM NADPH (Nacalai) was added to each well, and mixed with a vortex mixer, to thereby initiate the reaction. The reaction mixture was incubated at room temperature for 240 minutes, and the reaction was terminated by addition of 10 μL of ultrapure water containing 2% formic acid (Nacalai). In order to determine the amount of sepiapterin after termination of the reaction, the absorbance at 420 nm was measured by applying the 384-well plate to EnSpire multimode plate reader (Perkin Elmer). The percent inhibition (%) of human SPR by the test compound was calculated by the following formula. […]

human SPR [2] = target: T1, human SPR; assay: Evaluation Example 2: Measurement of human SPR inhibitory activity (seven concentrations, sepiapterin absorbance at 420 nm); assay type: biochemical; conditions: Evaluation Example 2, seven concentrations 0.14 nM to 100 nM, 240 minutes at room temperature, read-out: IC50
Summary of the method: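 His-tagged full-length human SPR (1-261) was expressed in E. coli and the tag removed. Enzyme at 150 ng/mL in 100 mM Tris-HCl pH 7.5/0.01% BSA was mixed with compound (0.14–100 nM, seven points), 120 μM sepiapterin and 160 μM NADPH, both as added-solution concentrations. After 240 min at room temperature, remaining sepiapterin was read at 420 nm to give percent inhibition.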

T1 sequence (P35270 whole entry): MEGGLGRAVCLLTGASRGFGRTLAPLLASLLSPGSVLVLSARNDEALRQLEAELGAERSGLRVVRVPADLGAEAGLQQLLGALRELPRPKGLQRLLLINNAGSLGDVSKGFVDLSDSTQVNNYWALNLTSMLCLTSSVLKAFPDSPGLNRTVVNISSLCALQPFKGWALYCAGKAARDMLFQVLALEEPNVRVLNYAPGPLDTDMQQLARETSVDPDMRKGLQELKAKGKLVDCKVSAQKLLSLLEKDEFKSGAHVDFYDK

Compound: CC(C)Cn1c(=O)c(C(=O)NC2CC2)c(O)n2ncc(/C=C/C(=O)N3CCOCC3)c12 [Synthesis Example 10, (E)-N-Cyclopropyl-7-hydroxy-4-isobutyl-3-(3-morpholino-3-oxoprop-1-en-1-yl)-5-oxo-4,5-dihydropyrazolo[1,5-a]pyrimidine-6-carboxamide]
- IC50 (human SPR [1]): < 1000 nM
- IC50 (human SPR [2]): 0.68 nM

Compound: CC(C)(C)Cn1c(=O)c(C(=O)NC2CC2)c(O)n2nc(Nc3ccncn3)cc12 [Synthesis Example 12, N-Cyclopropyl-7-hydroxy-4-neopentyl-5-oxo-2-(pyrimidin-4-ylamino)-4,5-dihydropyrazolo[1,5-a]pyrimidine-6-carboxamide]
- IC50 (human SPR [1]): < 1000 nM
- IC50 (human SPR [2]): 1.41 nM

Compound: CC(C)(C)Cn1c(=O)c(C(=O)NC2CC2)c(O)n2nc(Nc3cnccn3)cc12 [Synthesis Example 13, N-Cyclopropyl-7-hydroxy-4-neopentyl-5-oxo-2-(pyrazin-2-ylamino)-4,5-dihydropyrazolo[1,5-a]pyrimidine-6-carboxamide]
- IC50 (human SPR [1]): < 1000 nM
- IC50 (human SPR [2]): 1.43 nM

Compound: CC(C)(C)Cn1c(=O)c(C(=O)NC2CC2)c(O)n2nc(-c3cccnc3N)cc12 [Synthesis Example 14, 2-(2-Aminopyridin-3-yl)-N-cyclopropyl-7-hydroxy-4-neopentyl-5-oxo-4,5-dihydropyrazolo[1,5-a]pyrimidine-6-carboxamide]
- IC50 (human SPR [1]): < 1000 nM
- IC50 (human SPR [2]): 1.19 nM

Compound: CC(C)(C)Cn1c(=O)c(C(=O)NC2CC2)c(O)n2nc(Nc3cnc(C(F)(F)F)cn3)cc12 [Synthesis Example 15, N-Cyclopropyl-7-hydroxy-4-neopentyl-5-oxo-2-((5-(trifluoromethyl)pyrazin-2-yl)amino)-4,5-dihydropyrazolo[1,5-a]pyrimidine-6-carboxamide]
- IC50 (human SPR [1]): < 1000 nM
- IC50 (human SPR [2]): 1.61 nM

Compound: COc1cnc(Nc2cc3n(CC(C)(C)C)c(=O)c(C(=O)NC4CC4)c(O)n3n2)cn1 [Synthesis Example 16, N-Cyclopropyl-7-hydroxy-2-((5-methoxypyrazin-2-yl)amino)-4-neopentyl-5-oxo-4,5-dihydropyrazolo[1,5-a]pyrimidine-6-carboxamide]
- IC50 (human SPR [1]): < 1000 nM
- IC50 (human SPR [2]): 1.96 nM

Compound: COc1cncc(Nc2cc3n(CC(C)(C)C)c(=O)c(C(=O)NC4CC4)c(O)n3n2)n1 [Synthesis Example 17, N-Cyclopropyl-7-hydroxy-2-((6-methoxypyrazin-2-yl)amino)-4-neopentyl-5-oxo-4,5-dihydropyrazolo[1,5-a]pyrimidine-6-carboxamide]
- IC50 (human SPR [1]): < 1000 nM
- IC50 (human SPR [2]): 0.76 nM

Compound: CC(C)(C)Cn1c(=O)c(C(=O)NC2CC2)c(O)n2nc(N)cc12 [Synthesis Example 18, 2-Amino-N-cyclopropyl-7-hydroxy-4-neopentyl-5-oxo-4,5-dihydropyrazolo[1,5-a]pyrimidine-6-carboxamide]
- IC50 (human SPR [1]): < 1000 nM
- IC50 (human SPR [2]): 0.89 nM

Compound: CC(C)(C)Cn1c(=O)c(C(=O)NC2CC2)c(O)n2nc(Nc3cnc(C(N)=O)cn3)cc12 [Synthesis Example 21, 2-((5-Carbamoylpyrazin-2-yl)amino)-N-cyclopropyl-7-hydroxy-4-neopentyl-5-oxo-4,5-dihydropyrazolo[1,5-a]pyrimidine-6-carboxamide]
- IC50 (human SPR [1]): < 1000 nM
- IC50 (human SPR [2]): 0.96 nM

Compound: CC(C)Cn1c(=O)c(C(=O)NC2CC2)c(O)n2nc(Nc3cnccn3)cc12 [Synthesis Example 23, N-Cyclopropyl-7-hydroxy-4-isobutyl-5-oxo-2-(pyrazin-2-ylamino)-4,5-dihydropyrazolo[1,5-a]pyrimidine-6-carboxamide]
- IC50 (human SPR [1]): < 1000 nM
- IC50 (human SPR [2]): 1.91 nM

Compound: CC(C)(C)Cn1c(=O)c(C(=O)NC2CC2)c(O)n2nc(NC(N)=O)cc12 [Synthesis Example 32, N-Cyclopropyl-7-hydroxy-4-neopentyl-5-oxo-2-ureido-4,5-dihydropyrazolo[1,5-a]pyrimidine-6-carboxamide]
- IC50 (human SPR [1]): < 1000 nM
- IC50 (human SPR [2]): 3.08 nM

Compound: CC(C)(C)Cn1c(=O)c(C(=O)NC2CC2)c(O)n2nc(C(N)=O)cc12 [Synthesis Example 33, N6-Cyclopropyl-7-hydroxy-4-neopentyl-5-oxo-4,5-dihydropyrazolo[1,5-a]pyrimidine-2,6-dicarboxamide]
- IC50 (human SPR [1]): < 1000 nM
- IC50 (human SPR [2]): 0.65 nM

Compound: O=C(NC1CC1)c1c(O)n2ncc(C3=CCOCC3)c2n(CC2CCOCC2)c1=O [Synthesis Example 35, N-Cyclopropyl-3-(3,6-dihydro-2H-pyran-4-yl)-7-hydroxy-5-oxo-4-((tetrahydro-2H-pyran-4-yl)methyl)-4,5-dihydropyrazolo[1,5-a]pyrimidine-6-carboxamide]
- IC50 (human SPR [1]): < 1000 nM

Compound: CC(C)(C)Cn1c(=O)c(C(=O)NC2CC2)c(O)n2nc(C(=O)Nc3ccccn3)cc12 [Synthesis Example 41, N6-Cyclopropyl-7-hydroxy-4-neopentyl-5-oxo-N2-(pyridin-2-yl)-4,5-dihydropyrazolo[1,5-a]pyrimidine-2,6-dicarboxamide]
- IC50 (human SPR [1]): < 1000 nM

Compound: CC(C)Cn1c(=O)c(C(=O)NC2CC2)c(O)n2ncc(Br)c12 [Synthesis Example 104, 3-Bromo-N-cyclopropyl-7-hydroxy-4-isobutyl-5-oxo-4,5-dihydropyrazolo[1,5-a]pyrimidine-6-carboxamide]
- IC50 (human SPR [1]): < 1000 nM

Compound: O=C(NC1CC1)c1c(O)n2nc(C3CC3)cc2n(CC2CCOCC2)c1=O [Synthesis Example 135, N,2-Dicyclopropyl-7-hydroxy-5-oxo-4-((tetrahydro-2H-pyran-4-yl)methyl)-4,5-dihydropyrazolo[1,5-a]pyrimidine-6-carboxamide]
- IC50 (human SPR [1]): < 1000 nM

Compound: CC(C)(C)Cn1c(=O)c(C(=O)NC2CC2)c(O)n2ncc(/C=C/C(=O)N3CCOCC3)c12 [Synthesis Example 169, (E)-N-Cyclopropyl-7-hydroxy-3-(3-morpholino-3-oxoprop-1-en-1-yl)-4-neopentyl-5-oxo-4,5-dihydropyrazolo[1,5-a]pyrimidine-6-carboxamide]
- IC50 (human SPR [1]): < 1000 nM

Compound: COc1ccnc(Nc2cc3n(CC(C)(C)C)c(=O)c(C(=O)NC4CC4)c(O)n3n2)c1 [Synthesis Example 195, N-Cyclopropyl-7-hydroxy-2-((4-methoxypyridin-2-yl)amino)-4-neopentyl-5-oxo-4,5-dihydropyrazolo[1,5-a]pyrimidine-6-carboxamide]
- IC50 (human SPR [1]): < 1000 nM
